Source: ChEMBL document CHEMBL1141522, “Reduced cardiac side-effect potential by introduction of polar groups: discovery of NIBR-1282, an orally bioavailable CCR5 antagonist which is active in vivo” (Bioorg Med Chem Lett, 2008)
In brackets after ≈: the same amount, converted by molar mass. Activity calls are given as the source filed them. No cut-off for these calls is given here.

What was measured:
Heart [1] = assay: Toxicity in isolated rabbit heart model assessed as adverse side effect upto 0.5 uM; format: tissue-based, Oryctolagus cuniculus; details: ex_vivo
Heart [2] = assay: Toxicity in isolated rabbit heart model assessed as adverse side effect upto 1.0 uM; format: tissue-based, Oryctolagus cuniculus; details: ex_vivo
[3] = biological target: Voltage-gated inwardly rectifying potassium channel KCNH2 (Homo sapiens, UniProt Q12809); assay: Displacement of [3H]dofetilide from human ERG expressed in HEK293 cell membranes
[4] = biological target: T1, C-C chemokine receptor type 5 (Homo sapiens, UniProt P51681); assay: Displacement of [125I]RANTES from human CCR5 expressed in CHO cells; format: cell-based
[5] = biological target: T2, C-C chemokine receptor type 5 (Macaca fascicularis, UniProt P61814); assay: Displacement of radiolabeled MIP-1alpha from cynomolgus monkey CCR5 expressed in CHO cells; format: cell-based
Heart [6] = assay: Toxicity in isolated rabbit heart model assessed as adverse side effect upto 10 uM; format: tissue-based, Oryctolagus cuniculus
[7] = biological target: T1, C-C chemokine receptor type 5; assay: Antagonist activity at human CCR5 expressed in CHO cells assessed as MIP-1-alpha-induced Ca2+ mobilization; format: functional, cell-based
[8] = biological target: T2, C-C chemokine receptor type 5; assay: Antagonist activity at cynomolgus monkey CCR5 expressed in CHO cells assessed as MIP-1-alpha-induced Ca2+ mobilization; format: functional, cell-based
[9] = biological target: T1, C-C chemokine receptor type 5; assay: Antagonist activity at human CCR5 expressed in L1.2 cells assessed as MIP-1-alpha-induced Ca2+ mobilization; format: functional, cell-based
Cytochrome P450 1A2 = Cytochrome P450 1A2 (Homo sapiens, UniProt P05177); assay: Inhibition of CYP1A2; format: ADME
Cytochrome P450 2C9 = Cytochrome P450 2C9 (Homo sapiens, UniProt P11712); assay: Inhibition of CYP2C9; format: ADME
Cytochrome P450 2C19 = Cytochrome P450 2C19 (Homo sapiens, UniProt P33261); assay: Inhibition of CYP2C19; format: ADME
Cytochrome P450 2D6 = Cytochrome P450 2D6 (Homo sapiens, UniProt P10635); assay: Inhibition of CYP2D6; format: ADME
Cytochrome P450 3A4 = Cytochrome P450 3A4 (Homo sapiens, UniProt P08684); assay: Inhibition of CYP3A4; format: ADME
[10] = Dissociation constant, pKa of the compound; format: physicochemical
[11] = Partition coefficient, log P of the compound; format: physicochemical; details: octanol/water
[12] = Lipophilicity, log D at pH 6.8; format: physicochemical; details: buffer
[13] = Intrinsic clearance in human liver microsomes; format: ADME, Microsome
[14] = Intrinsic clearance in rat liver microsomes; format: ADME, Microsome
[15] = Solubility in water; format: physicochemical
[16] = Solubility at pH 7.4; format: physicochemical; details: buffer
[17] = Permeability from apical to basolateral side of human Caco-2 cell membranes; format: ADME, cell-based; details: read-out: permeability (converted)
[18] = Permeability from basolateral to apical side of human Caco-2 cell membranes; format: ADME, cell-based; details: read-out: permeability (converted)
[19] = Protein binding in human plasma; format: ADME, cell-free
[20] = Protein binding in rat plasma; format: ADME, cell-free
[21] = biological target: C-C chemokine receptor type 1 (Homo sapiens) (UniProt P32246); assay: Inhibition of CCR1 upto 1 uM
[22] = biological target: C-C chemokine receptor type 2 (Homo sapiens) (UniProt P41597); assay: Inhibition of CCR2 upto 1 uM
[23] = biological target: C-C chemokine receptor type 3 (Homo sapiens) (UniProt P51677); assay: Inhibition of CCR3 upto 1 uM
[24] = biological target: C-C chemokine receptor type 4 (Homo sapiens) (UniProt P51679); assay: Inhibition of CCR4 upto 1 uM
[25] = biological target: C-C chemokine receptor type 6 (Homo sapiens) (UniProt P51684); assay: Inhibition of CCR6 upto 1 uM
[26] = biological target: C-C chemokine receptor type 7 (Homo sapiens) (UniProt P32248); assay: Inhibition of CCR7 upto 1 uM
[27] = biological target: C-X-C chemokine receptor type 1 (Homo sapiens) (UniProt P25024); assay: Inhibition of CXCR1 upto 1 uM
[28] = biological target: C-X-C chemokine receptor type 2 (Homo sapiens) (UniProt P25025); assay: Inhibition of CXCR2 upto 1 uM
[29] = biological target: C-X-C chemokine receptor type 3 (Homo sapiens) (UniProt P49682); assay: Inhibition of CXCR3 upto 1 uM
[30] = biological target: C-X-C chemokine receptor type 4 (Homo sapiens) (UniProt P61073); assay: Inhibition of CXCR4 upto 1 uM
[31] = biological target: C-X-C chemokine receptor type 6 (Homo sapiens) (UniProt O00574); assay: Inhibition of CXCR6 upto 1 uM
[32] = Inhibition of muscarinic acetylcholine receptor at 1 uM
[33] = AUC in rat at 1 mg/kg, po; format: ADME, organism-based; design: dose 1 mg/kg, route oral; details: plasma
[34] = Cmax in rat at 1 mg/kg, po; format: ADME, organism-based; design: dose 1 mg/kg, route oral; details: in vivo
[35] = Tmax in po dosed rat; format: ADME, organism-based; details: in vivo
[36] = Half life in po dosed rat; format: ADME, organism-based; details: in vivo
[37] = Oral bioavailability in rat; format: ADME, organism-based; details: in vivo
[38] = AUC in cynomolgus monkey at 1 mg/kg, po; format: ADME, organism-based, Macaca fascicularis; design: dose 1 mg/kg, route oral; details: plasma
[39] = Cmax in cynomolgus monkey at 1 mg/kg, po; format: ADME, organism-based, Macaca fascicularis; design: dose 1 mg/kg, route oral; details: in vivo
[40] = Tmax in po dosed cynomolgus monkey; format: ADME, organism-based, Macaca fascicularis; details: in vivo
[41] = Half life in po dosed cynomolgus monkey; format: ADME, organism-based, Macaca fascicularis; details: in vivo
[42] = Oral bioavailability in cynomolgus monkey; format: ADME, organism-based, Macaca fascicularis; details: in vivo
[43] = AUC in dog at 1 mg/kg, po; format: ADME, organism-based, Canis lupus familiaris; design: dose 1 mg/kg, route oral; details: plasma
[44] = Cmax in dog at 1 mg/kg, po; format: ADME, organism-based, Canis lupus familiaris; design: dose 1 mg/kg, route oral; details: in vivo
[45] = Tmax in po dosed dog; format: ADME, organism-based, Canis lupus familiaris; details: in vivo
[46] = Half life in po dosed dog; format: ADME, organism-based, Canis lupus familiaris; details: in vivo
[47] = Oral bioavailability in dog; format: ADME, organism-based, Canis lupus familiaris; details: in vivo
[48] = Mean residence time in cynomolgus monkey; format: ADME, organism-based, Macaca fascicularis; details: in vivo
[49] = Mean residence time in dog; format: ADME, organism-based, Canis lupus familiaris; details: in vivo
Cynomolgus monkey [50] = assay: Prolongation of graft survival in cynomolgus monkey kidney transplantation model at 20 mg/kg, sc bid; format: functional, Macaca fascicularis; details: route subcutaneous
Cynomolgus monkey [51] = assay: Prolongation of graft survival in cynomolgus monkey kidney transplantation model at 20 mg/kg, sc bid in presence of cyclosporine A; format: functional, Macaca fascicularis; details: route subcutaneous
Cynomolgus monkey [52] = assay: Prolongation of graft survival in cynomolgus monkey kidney transplantation model at 40 mg/kg, po qd in presence of cyclosporine A; format: functional, Macaca fascicularis
[53] = biological target: C-C chemokine receptor type 5 (Mus musculus) (UniProt P51682); assay: Binding affinity to mouse CCR5
Heart [54] = assay: Toxicity in isolated rabbit heart model assessed as adverse side effect upto 1.5 uM; format: tissue-based, Oryctolagus cuniculus
Heart [55] = assay: Toxicity in isolated rabbit heart model assessed as adverse side effect upto 5.0 uM; format: tissue-based, Oryctolagus cuniculus

Voltage-gated inwardly rectifying potassium channel KCNH2, sequence (Q12809 whole entry): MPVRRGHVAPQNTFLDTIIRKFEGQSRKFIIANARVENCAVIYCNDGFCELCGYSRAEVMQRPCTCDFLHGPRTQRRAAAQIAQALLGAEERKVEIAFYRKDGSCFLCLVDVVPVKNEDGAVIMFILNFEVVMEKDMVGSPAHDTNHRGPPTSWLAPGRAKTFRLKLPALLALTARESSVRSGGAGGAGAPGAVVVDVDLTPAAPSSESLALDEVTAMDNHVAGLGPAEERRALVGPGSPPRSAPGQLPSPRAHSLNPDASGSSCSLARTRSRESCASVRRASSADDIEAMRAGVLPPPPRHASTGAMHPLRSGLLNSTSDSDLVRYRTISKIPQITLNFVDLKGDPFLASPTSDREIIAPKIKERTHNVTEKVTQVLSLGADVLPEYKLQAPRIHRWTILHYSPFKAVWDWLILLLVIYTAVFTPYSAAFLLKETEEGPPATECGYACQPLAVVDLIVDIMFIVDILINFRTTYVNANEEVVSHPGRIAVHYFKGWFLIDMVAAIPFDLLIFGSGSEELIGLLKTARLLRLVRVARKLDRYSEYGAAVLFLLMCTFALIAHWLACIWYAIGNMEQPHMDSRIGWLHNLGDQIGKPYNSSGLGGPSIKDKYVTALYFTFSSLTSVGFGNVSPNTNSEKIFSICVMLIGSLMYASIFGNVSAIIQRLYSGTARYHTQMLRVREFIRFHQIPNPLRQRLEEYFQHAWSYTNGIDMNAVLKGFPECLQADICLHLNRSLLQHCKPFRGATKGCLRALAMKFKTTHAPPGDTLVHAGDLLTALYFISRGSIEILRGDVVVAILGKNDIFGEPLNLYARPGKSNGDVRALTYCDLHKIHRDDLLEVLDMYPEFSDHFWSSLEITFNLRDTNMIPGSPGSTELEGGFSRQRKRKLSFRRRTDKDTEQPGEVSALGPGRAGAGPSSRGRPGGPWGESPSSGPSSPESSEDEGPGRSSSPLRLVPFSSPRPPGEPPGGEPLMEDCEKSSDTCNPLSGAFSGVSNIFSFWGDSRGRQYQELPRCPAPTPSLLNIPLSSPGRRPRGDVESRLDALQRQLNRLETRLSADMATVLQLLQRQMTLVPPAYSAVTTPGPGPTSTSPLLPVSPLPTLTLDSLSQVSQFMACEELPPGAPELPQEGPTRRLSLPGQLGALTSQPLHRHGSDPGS
T1 sequence (P51681 whole entry): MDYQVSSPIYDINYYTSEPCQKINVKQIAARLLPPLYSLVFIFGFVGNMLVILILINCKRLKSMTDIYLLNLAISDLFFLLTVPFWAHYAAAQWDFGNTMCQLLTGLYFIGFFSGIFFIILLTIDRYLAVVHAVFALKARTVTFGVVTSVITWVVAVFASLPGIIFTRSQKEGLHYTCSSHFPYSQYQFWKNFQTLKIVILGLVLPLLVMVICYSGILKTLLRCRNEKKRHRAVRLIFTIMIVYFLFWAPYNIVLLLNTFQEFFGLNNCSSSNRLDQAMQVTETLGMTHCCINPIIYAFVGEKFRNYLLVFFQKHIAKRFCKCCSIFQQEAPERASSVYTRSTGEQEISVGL
C-C chemokine receptor type 6 (Homo sapiens), sequence (P51684 whole entry): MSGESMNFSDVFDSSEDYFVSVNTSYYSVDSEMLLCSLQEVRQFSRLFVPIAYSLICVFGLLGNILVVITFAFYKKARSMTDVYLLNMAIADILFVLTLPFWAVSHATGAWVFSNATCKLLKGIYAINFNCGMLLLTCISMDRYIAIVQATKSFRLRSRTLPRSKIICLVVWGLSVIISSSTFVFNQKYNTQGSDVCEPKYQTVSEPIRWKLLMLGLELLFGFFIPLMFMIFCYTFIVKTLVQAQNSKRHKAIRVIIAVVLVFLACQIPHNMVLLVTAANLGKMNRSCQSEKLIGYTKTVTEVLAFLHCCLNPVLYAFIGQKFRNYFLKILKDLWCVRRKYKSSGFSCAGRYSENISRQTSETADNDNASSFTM
C-X-C chemokine receptor type 4 (Homo sapiens), sequence (P61073 whole entry): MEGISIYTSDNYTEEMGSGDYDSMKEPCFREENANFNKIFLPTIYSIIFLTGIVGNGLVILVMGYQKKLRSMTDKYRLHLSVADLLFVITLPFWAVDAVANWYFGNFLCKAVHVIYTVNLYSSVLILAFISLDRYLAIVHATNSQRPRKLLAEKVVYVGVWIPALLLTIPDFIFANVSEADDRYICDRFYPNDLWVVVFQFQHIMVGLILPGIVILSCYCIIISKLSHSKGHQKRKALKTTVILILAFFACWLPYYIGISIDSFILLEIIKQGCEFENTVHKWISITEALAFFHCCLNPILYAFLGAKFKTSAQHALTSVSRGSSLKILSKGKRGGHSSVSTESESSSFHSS
C-C chemokine receptor type 7 (Homo sapiens), sequence (P32248 whole entry): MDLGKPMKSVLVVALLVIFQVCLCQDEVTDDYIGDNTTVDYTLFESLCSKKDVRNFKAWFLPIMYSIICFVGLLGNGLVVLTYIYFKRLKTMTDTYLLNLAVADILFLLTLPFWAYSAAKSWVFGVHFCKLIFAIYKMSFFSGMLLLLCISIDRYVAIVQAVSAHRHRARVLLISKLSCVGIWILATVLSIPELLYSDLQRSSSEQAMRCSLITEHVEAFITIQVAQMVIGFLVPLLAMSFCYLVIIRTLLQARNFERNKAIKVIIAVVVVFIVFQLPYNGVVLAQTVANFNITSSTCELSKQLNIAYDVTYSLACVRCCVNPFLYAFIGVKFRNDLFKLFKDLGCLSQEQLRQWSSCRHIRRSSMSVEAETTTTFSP
Cytochrome P450 2D6, sequence (P10635 whole entry): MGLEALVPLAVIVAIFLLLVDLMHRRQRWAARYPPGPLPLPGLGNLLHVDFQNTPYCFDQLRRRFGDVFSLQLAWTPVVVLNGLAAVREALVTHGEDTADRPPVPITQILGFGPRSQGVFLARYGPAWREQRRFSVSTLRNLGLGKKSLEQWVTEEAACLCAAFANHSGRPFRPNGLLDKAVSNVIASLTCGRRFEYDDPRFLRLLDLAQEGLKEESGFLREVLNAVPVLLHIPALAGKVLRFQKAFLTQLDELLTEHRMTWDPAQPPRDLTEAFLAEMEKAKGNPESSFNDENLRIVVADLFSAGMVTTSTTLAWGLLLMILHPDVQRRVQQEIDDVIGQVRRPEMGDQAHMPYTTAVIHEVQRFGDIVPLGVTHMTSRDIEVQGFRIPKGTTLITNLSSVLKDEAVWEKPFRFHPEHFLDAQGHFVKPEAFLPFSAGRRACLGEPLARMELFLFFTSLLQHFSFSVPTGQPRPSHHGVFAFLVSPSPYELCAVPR
Cytochrome P450 3A4, sequence (P08684 whole entry): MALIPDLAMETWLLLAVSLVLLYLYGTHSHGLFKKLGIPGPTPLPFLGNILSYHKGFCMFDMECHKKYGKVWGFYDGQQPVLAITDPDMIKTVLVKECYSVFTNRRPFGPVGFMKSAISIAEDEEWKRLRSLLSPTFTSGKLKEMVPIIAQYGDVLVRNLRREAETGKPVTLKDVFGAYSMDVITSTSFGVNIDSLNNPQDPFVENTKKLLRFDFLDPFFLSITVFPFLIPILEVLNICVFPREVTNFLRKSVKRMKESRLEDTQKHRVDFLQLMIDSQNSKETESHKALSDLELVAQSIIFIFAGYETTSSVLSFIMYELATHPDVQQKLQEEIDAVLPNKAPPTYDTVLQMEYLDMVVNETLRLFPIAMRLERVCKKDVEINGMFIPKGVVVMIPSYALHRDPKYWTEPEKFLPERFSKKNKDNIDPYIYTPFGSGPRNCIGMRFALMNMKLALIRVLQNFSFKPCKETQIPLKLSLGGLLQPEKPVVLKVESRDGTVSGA
C-C chemokine receptor type 4 (Homo sapiens), sequence (P51679 whole entry): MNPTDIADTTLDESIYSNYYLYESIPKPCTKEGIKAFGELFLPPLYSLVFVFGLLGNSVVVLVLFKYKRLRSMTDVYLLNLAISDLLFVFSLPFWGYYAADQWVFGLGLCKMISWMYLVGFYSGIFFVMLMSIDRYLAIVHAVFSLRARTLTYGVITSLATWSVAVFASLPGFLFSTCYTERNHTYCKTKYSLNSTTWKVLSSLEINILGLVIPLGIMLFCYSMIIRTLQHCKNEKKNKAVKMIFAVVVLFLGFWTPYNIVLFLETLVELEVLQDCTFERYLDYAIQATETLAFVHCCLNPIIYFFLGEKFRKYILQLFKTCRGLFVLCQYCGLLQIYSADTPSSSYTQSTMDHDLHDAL
C-X-C chemokine receptor type 2 (Homo sapiens), sequence (P25025 whole entry): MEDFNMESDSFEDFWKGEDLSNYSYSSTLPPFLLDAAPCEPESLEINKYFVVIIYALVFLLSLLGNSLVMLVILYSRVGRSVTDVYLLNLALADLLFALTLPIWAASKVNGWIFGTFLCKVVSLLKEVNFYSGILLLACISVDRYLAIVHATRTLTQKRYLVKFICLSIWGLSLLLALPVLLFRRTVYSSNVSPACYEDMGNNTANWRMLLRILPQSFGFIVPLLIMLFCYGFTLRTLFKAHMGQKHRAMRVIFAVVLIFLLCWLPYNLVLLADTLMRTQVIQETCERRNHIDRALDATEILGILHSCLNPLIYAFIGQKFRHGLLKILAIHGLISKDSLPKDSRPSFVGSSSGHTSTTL

Cc1ncnc(C)c1C(=O)N1CCC(C)(N2CCC(N(c3ccccc3)c3ccccc3)CC2)CC1
Activity (Heart [1]): Non-toxic

Cc1cccc(C)c1C(=O)N1CCC(C)(N2CCC(N(c3ccccc3)c3ccccc3)CC2)CC1
Activity (Heart [2]): Non-toxic
IC50 [3]: 150 nM

CC1(N2CCC(N(c3ccccc3)c3cccnc3)CC2)CCN(C(=O)c2c(Cl)c[n+]([O-])cc2Cl)CC1
Activity (Heart [2]): Non-toxic
IC50 [4]: 1 nM
IC50 [5]: 4.2 nM

CC1(N2CCC(N(c3ccccc3)c3cccnc3)CC2)CCN(C(=O)c2c(Cl)cncc2Cl)CC1
Activity (Heart [1]): Non-toxic
IC50 [4]: 0.8 nM
IC50 [5]: 3.2 nM

Cc1cccc(C)c1C(=O)N1CCC(C)(N2CCC(N(c3ccccc3)c3ccncc3)CC2)CC1
Activity (Heart [1]): Non-toxic
IC50 [4]: 2 nM
IC50 [5]: 9.8 nM

Cc1cc[n+]([O-])c(C)c1C(=O)N1CCC(C)(N2CCC(N(Cc3cccc(C#N)c3)c3ccccc3)CC2)CC1
Activity (Heart [2]): Non-toxic

Cc1cc[n+]([O-])c(C)c1C(=O)N1CCC(C)(N2CCC(N(Cc3ccccc3)c3ccccc3)CC2)CC1
Activity (Heart [1]): Non-toxic

Cc1cc[n+]([O-])c(C)c1C(=O)N1CCC(C)(N2CCC(N(c3ccccc3)c3cccnc3)CC2)CC1
Activity (Heart [6]): Non-toxic
IC50 [7]: 43.6 nM
IC50 [8]: 64 nM
IC50 [9]: 16.2 nM
IC50 (Cytochrome P450 1A2): > 10000 nM
IC50 (Cytochrome P450 2C9): > 10000 nM
IC50 (Cytochrome P450 2C19): > 10000 nM
IC50 (Cytochrome P450 2D6): > 10000 nM
IC50 (Cytochrome P450 3A4): 5300 nM
pKa [10]: 5.5
logP [11]: 2.2
logD [12]: 0.8
microsomal CLint [13]: < 15 µL/min/mg
microsomal CLint [14]: < 15 µL/min/mg
solubility [15]: 1000 µg/mL (≈ 2000 µM)
solubility [16]: > 12500 µg/mL
Papp A→B [17]: 0.667 ×10⁻⁶ cm/s
Papp B→A [18]: 10.8 ×10⁻⁶ cm/s
fraction unbound [19]: 0.62
fraction unbound [20]: 0.48
Activity [21]: inactive
Activity [22]: inactive
Activity [23]: inactive
Activity [24]: inactive
Activity [25]: inactive
Activity [26]: inactive
Activity [27]: inactive
Activity [28]: inactive
Activity [29]: inactive
Activity [30]: inactive
Activity [31]: inactive
Activity [32]: inactive
AUC [33]: 41 ng·h/mL
Cmax [34]: 5.8 ng/mL
Tmax [35]: 0.4 h
half-life [36]: 8.1 h
bioavailability [37]: 22%
AUC [38]: 503 ng·h/mL
Cmax [39]: 93 ng/mL
Tmax [40]: 0.5 h
half-life [41]: 6.3 h
bioavailability [42]: 43%
AUC [43]: 278 ng·h/mL
Cmax [44]: 84 ng/mL
Tmax [45]: 0.6 h
half-life [46]: 7.9 h
bioavailability [47]: 56%
MRT [48]: 6 h
MRT [49]: 8 h
Activity (Cynomolgus monkey [50]): 6 days
Activity (Cynomolgus monkey [51]): >100 days
Activity (Cynomolgus monkey [52]): 39 days
Activity [53]: inactive
IC50 [4]: 5.1 nM
IC50 [5]: 8.1 nM

CC1(N2CCC(N(c3ccccc3)c3cccnc3)CC2)CCN(C(=O)c2cccc3ccccc23)CC1
Activity (Heart [2]): Non-toxic
IC50 [4]: 1.3 nM
IC50 [5]: 3.6 nM

Cc1ccnc(C)c1C(=O)N1CCC(C)(N2CCC(N(c3ccccc3)c3ccccc3)CC2)CC1
Activity (Heart [1]): Non-toxic
IC50 [3]: 570 nM

Cc1cc[n+]([O-])c(C)c1C(=O)N1CCC(C)(N2CCC(N(c3ccccc3)c3ccccc3)CC2)CC1
Activity (Heart [1]): Non-toxic
IC50 [5]: 3.4 nM

Cc1ccnc(C)c1C(=O)N1CCC(C)(N2CCC(N(c3ccccc3)c3cccnc3)CC2)CC1
Activity (Heart [2]): Non-toxic
IC50 [4]: 0.9 nM
IC50 [5]: 0.8 nM

Cc1cccnc1C(=O)N1CCC(C)(N2CCC(N(c3ccccc3)c3cccnc3)CC2)CC1
Activity (Heart [1]): Non-toxic
IC50 [4]: 6.5 nM
IC50 [5]: 39 nM

Cc1nc[n+]([O-])c(C)c1C(=O)N1CCC(C)(N2CCC(N(c3ccccc3)c3ccccc3)CC2)CC1
IC50 [3]: 1200 nM
Activity (Heart [54]): Non-toxic

Cc1nc(CN(c2ccccc2)C2CCN(C3(C)CCN(C(=O)c4c(C)cc[n+]([O-])c4C)CC3)CC2)cs1
Activity (Heart [55]): Non-toxic
IC50 [3]: 12200 nM
IC50 [4]: 1.7 nM
IC50 [5]: 107 nM

Cc1cc[n+]([O-])c(C)c1C(=O)N1CCC(C)(N2CCC(N(c3ccccc3)c3ccccn3)CC2)CC1
Activity (Heart [2]): Non-toxic
IC50 [4]: 1.8 nM
IC50 [5]: 12 nM

Cc1cccc(C)c1C(=O)N1CCC(C)(N2CCC(N(c3ccccc3)c3cccnc3)CC2)CC1
Activity (Heart [1]): Non-toxic
IC50 [4]: 0.5 nM
IC50 [5]: 1.1 nM

Cc1cccc(C)c1C(=O)N1CCC(C)(N2CCC(N(Cc3ccccc3)c3ccccc3)CC2)CC1
IC50 [3]: 670 nM
Activity (Heart [54]): Non-toxic
